Values quoted from earlier work, collected in US9014457B2, “Quantifying cell death” (UCL Business PLC, priority 2009, dated 2015).

Tested on: neuronal cells
Settings: cited from earlier work

For `CCCCCCCCCCCCCCCCCCN1C(=CC=CC2=[N+](CCCCCCCCCCCCCCCCCC)c3ccccc3C2(C)C)C(C)(C)c2ccccc21.[O-][Cl+3]([O-])([O-])[O-]` [DiI, 1,1′-dioctadecyl-3,3,3′,3′-tetramethylindocarbocyanine perchlorate], which “cell viability, development or basic cellular physiological properties” value is on record?
Its value is “does not affect”.
